Measurements from publication PMC4200806, “A Combined Experimental and Computational Study of Vam3, a Derivative of Resveratrol, and Syk Interaction” (International Journal of Molecular Sciences, 2014).

Molecular target: Spleen tyrosine kinase (Syk) (Homo sapiens, UniProt P43405)
Assay: in vitro kinase assay with purified recombinant Syk (ADP-Glo, poly(Glu,Tyr) substrate); Ki from ATP-competition kinetics; IC50 […]
Assay type: biochemical

## Oc1ccc(/C=C/c2cc(O)cc3oc(-c4ccc(O)cc4)c(-c4cc(O)cc(O)c4)c23)cc1 [Vam3]
  Ki: 61.1 nM
